Results: US20110034369A1, “Agonists of Bitter Taste Receptors and Uses Thereof” (DEUTSCHES INSTITUT FUR ERNAHRUNGSFORSCHUNG POTSDAM-REHBRUCKE, priority 2004, published 2011)

Key:
Format in all cases: cell-based
hTAS2R1 = target: T1, hTAS2R1 (Homo sapiens, UniProt Q9NYW7); assay: FLIPR calcium mobilization, hTAS2R1-transfected HEK-293T/Gα16gust44 cells; conditions: response of hTAS2R1, calcium signal; for threshold: Fluo4-AM, transiently transfected HEK-293T Gα16gust44; for EC50: dose-response
T1 construct: export tag: amino acids 1-45 of rat somatostatin receptor 3 (N); expressed in transfected cells; host or cells: HEK-293T cells stably expressing the chimeric G-protein subunit Galpha16gust44
T1 sequence (Q9NYW7 1-299): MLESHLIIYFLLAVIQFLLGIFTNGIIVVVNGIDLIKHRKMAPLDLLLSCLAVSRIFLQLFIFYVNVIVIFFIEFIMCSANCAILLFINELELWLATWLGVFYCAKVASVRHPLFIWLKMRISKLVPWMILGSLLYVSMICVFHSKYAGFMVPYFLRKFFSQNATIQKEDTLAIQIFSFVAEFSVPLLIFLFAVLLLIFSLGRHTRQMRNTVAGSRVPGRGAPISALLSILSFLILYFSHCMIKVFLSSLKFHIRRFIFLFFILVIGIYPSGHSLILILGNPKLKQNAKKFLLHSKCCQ
Method: Ligand screening using an automated fluorometric imaging plate reader (Molecular Devices) was essentially done as described (Bufe B. et al. (2002) Nature Genetics 32: 397-401). Briefly: The cells were seeded at a density of 70,000±10,000 cells per well in 96-well microtiter plates. The cDNA of hTAS2R1, hTASR3, hTASR7 and hTASR40 supplemented with an amino terminal export tag corresponding to amino acids 1-45 of rat somatostatin receptor 3 and a carboxy terminal HSV-tag was transiently transfected into HEK-293T cells stably expressing the chimeric G-protein subunit Gα16gust44 (Ueda T. et al. (2003) J. Neurosci. 23: 7376-7380) using Lipofectamine2000 (Invitrogen). […] 24-32 hours after transfection, the cells were then loaded for 1 hour with the calcium sensitive dye Fluo4-AM (2 μg/ml in DMEM, Molecular Probes). Cells were washed 3× in solution C1 (130 mM NaCl, 5 mM KCl, 10 mM Hepes, 2 mM CaCl2, and 10 mM Glucose, pH 7.4). Calcium mobilization was monitored by an automated fluorometric imaging plate reader (Molecular Devices). Ligands (Sigma-Aldrich) were dissolved in C1 solution. All data were collected from experiments carried out in triplicate. For dose-response curves, the obtained calcium signals were corrected for and normalized to background fluorescence ΔF/F=(F−F0)/F0 and baseline noise was subtracted.

hTAS2R7 = target: T2, hTAS2R7 (Homo sapiens, UniProt Q9NYW3); assay: FLIPR calcium mobilization, hTAS2R7-transfected HEK-293T/Gα16gust44 cells; conditions: response of hTAS2R7, calcium signal
T2 construct: export tag: amino acids 1-45 of rat somatostatin receptor 3 (N); expressed in transfected cells; host or cells: HEK-293T cells stably expressing the chimeric G-protein subunit Galpha16gust44
T2 sequence (Q9NYW3 1-318): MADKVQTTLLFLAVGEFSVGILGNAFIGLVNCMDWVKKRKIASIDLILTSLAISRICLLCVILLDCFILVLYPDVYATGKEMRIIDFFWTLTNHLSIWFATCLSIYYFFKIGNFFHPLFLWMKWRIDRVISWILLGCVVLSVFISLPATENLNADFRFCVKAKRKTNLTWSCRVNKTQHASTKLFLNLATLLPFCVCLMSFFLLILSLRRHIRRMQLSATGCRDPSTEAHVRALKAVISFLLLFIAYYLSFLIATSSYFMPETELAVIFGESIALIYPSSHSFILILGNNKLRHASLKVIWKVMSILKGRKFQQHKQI
Method: (§1) Ligand screening using an automated fluorometric imaging plate reader (Molecular Devices) was essentially done as described (Bufe B. et al. (2002) Nature Genetics 32: 397-401). Briefly: The cells were seeded at a density of 70,000±10,000 cells per well in 96-well microtiter plates. The cDNA of hTAS2R1, hTASR3, hTASR7 and hTASR40 supplemented with an amino terminal export tag corresponding to amino acids 1-45 of rat somatostatin receptor 3 and a carboxy terminal HSV-tag was transiently transfected into HEK-293T cells stably expressing the chimeric G-protein subunit Gα16gust44 (Ueda T. et al. (2003) J. Neurosci. 23: 7376-7380) using Lipofectamine2000 (Invitrogen). Expression rates were determined to be 20% for hTAS2R1; 35% for hTAS2R3, 14% for hTAS2R7 and 29% for hTAS2R40 by indirect immunocyclochemistry using monoclonal anti-HSV antibodies (Novagen) and secondary anti-mouse IgG antibodies coupled to Alexa 488 (Molecular probes) see (FIG. 1). 24-32 hours after transfection, the cells were then loaded for 1 hour with the calcium sensitive dye Fluo4-AM (2 μg/ml in DMEM, Molecular Probes). Cells were washed 3× in solution C1 (130 mM NaCl, 5 mM KCl, 10 mM Hepes, 2 mM CaCl2, and 10 mM Glucose, pH 7.4). Calcium mobilization was monitored by an automated fluorometric imaging plate reader (Molecular Devices). Ligands (Sigma-Aldrich) were dissolved in C1 solution. All data were collected from experiments carried out in triplicate. For dose-response curves, the obtained calcium signals were corrected for and normalized to background fluorescence ΔF/F=(F−F0)/F0 and baseline noise was subtracted.

hTAS2R3 = target: T3, hTAS2R3 (Homo sapiens, UniProt Q9NYW6); assay: FLIPR calcium mobilization, hTAS2R3-transfected HEK-293T/Gα16gust44 cells; conditions: response of hTAS2R3; calcium signal
T3 construct: export tag: amino acids 1-45 of rat somatostatin receptor 3 (N); expressed in transfected cells; host or cells: HEK-293T cells stably expressing the chimeric G-protein subunit Galpha16gust44
T3 sequence (Q9NYW6 1-316): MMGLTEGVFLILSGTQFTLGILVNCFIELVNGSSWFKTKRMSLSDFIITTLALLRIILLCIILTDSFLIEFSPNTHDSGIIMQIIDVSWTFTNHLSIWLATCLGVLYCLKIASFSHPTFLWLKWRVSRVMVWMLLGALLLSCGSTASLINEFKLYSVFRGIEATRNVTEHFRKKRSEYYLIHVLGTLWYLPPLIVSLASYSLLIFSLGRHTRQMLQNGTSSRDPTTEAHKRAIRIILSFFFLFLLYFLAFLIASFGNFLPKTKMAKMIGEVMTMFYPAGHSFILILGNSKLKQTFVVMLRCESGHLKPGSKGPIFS
Method: as §1, with “Cells were washed 3× in solution C1 (130 mM NaCl, 5 mM KCl, 10 mM Hepes, 2 mM CaCl2, and 10 mM Glucose, pH 7.4).” left out, “Ligands (Sigma-Aldrich) were dissolved in C1 solution. All data were collected from experiments carried out in triplicate.” left out

hTAS2R40 = target: T4, hTAS2R40 (Homo sapiens, UniProt P59535); assay: FLIPR calcium mobilization, hTAS2R40-transfected HEK-293T/Gα16gust44 cells; conditions: response of hTAS2R40; calcium signal
T4 construct: export tag: amino acids 1-45 of rat somatostatin receptor 3 (N); expressed in transfected cells; host or cells: HEK-293T cells stably expressing the chimeric G-protein subunit Galpha16gust44
T4 sequence (P59535 whole entry, the tested form may be a part): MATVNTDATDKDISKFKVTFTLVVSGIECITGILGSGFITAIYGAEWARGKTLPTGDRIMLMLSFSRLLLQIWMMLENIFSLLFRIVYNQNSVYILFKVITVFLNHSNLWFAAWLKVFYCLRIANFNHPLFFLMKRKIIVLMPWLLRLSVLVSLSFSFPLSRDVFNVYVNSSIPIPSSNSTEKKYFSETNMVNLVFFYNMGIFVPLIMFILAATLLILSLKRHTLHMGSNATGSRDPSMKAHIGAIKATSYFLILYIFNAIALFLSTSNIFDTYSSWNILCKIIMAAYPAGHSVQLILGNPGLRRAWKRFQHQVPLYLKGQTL
Method: as §1, with “Cells were washed 3× in solution C1 (130 mM NaCl, 5 mM KCl, 10 mM Hepes, 2 mM CaCl2, and 10 mM Glucose, pH 7.4).” left out, “Ligands (Sigma-Aldrich) were dissolved in C1 solution. All data were collected from experiments carried out in triplicate.” left out

Compound | max. amplitude (hTAS2R1) [counts] | threshold (hTAS2R1) [mM] | EC50 (hTAS2R1) [µM] | max. amplitude (hTAS2R7) [counts] | threshold (hTAS2R7) [mM] | other results
O=C(N[C@H](CO)[C@H](O)c1ccc([N+](=O)[O-])cc1)C(Cl)Cl [Chloramphenicol, chloramphenicol] | 9000 | ~0.1 | 200 | – | – | –
CN1CC(=O)NC1=N [Creatinine, creatinine] | – | – | – | 3000 | ~10 | max. amplitude (hTAS2R3): 5000 counts; threshold (hTAS2R3): ~30 mM
O=C(O)c1cc(=O)c2c(OCC(O)COc3cccc4oc(C(=O)O)cc(=O)c34)cccc2o1 [Cromolyn, cromolyn] | – | – | – | 3000 | ~1 | EC50 (hTAS2R7; dose-response): 9000 µM
C=C(C)[C@@H]1[C@H]2OC(=O)[C@@H]1[C@]1(O)C[C@H]3O[C@]34C(=O)O[C@H]2[C@]14C [Picrotoxinin, picrotoxinin] | 2000 | ~0.0001 | – | – | – | –
COC(=O)[C@@H]1[C@H]2C[C@H]3c4[nH]c5ccccc5c4CCN3C[C@@H]2CC[C@@H]1O [Yohimbine, yohimbine] | 3000 | ~0.03 | – | – | – | –
humulone | 9000 | ~0.0001 | 0.9 | – | – | max. amplitude (hTAS2R40): 6000 counts; threshold (hTAS2R40): <0.00003 mM
